Results taken from patent EP0395099B1 (priority 1989, dated 1990).
Like-named read-outs stand apart in the source and are kept apart here.

System: Staphylococcus aureus strain FRI-1169
Experiment: microbe, parasite or virus in culture
Assay type: cell-based
Conditions: for inhibition at 0.1 % / inhibition at 0.5 % / inhibition at 1 % / inhibition at 10 %: Staphylococcus aureus; for inhibition at 0.1 %: FRI1169, read-out: Reduction in TSST-1 Formation, Example 11: test tampon comprising 0.1% fatty acid ester; for inhibition at 0.5 %: FRI1169, read-out: Reduction in TSST-1 Formation, Example 11: test tampon comprising 0.5% fatty acid ester; for inhibition at 10 %: FRI1169, read-out: Reduction in TSST-1 Formation, Example 11: test tampon comprising 10% fatty acid ester
[1] = Example 11: test tampon comprising 0.1% fatty acid ester
[2] = Example 11: test tampon comprising 0.5% fatty acid ester
[3] = Example 11: test tampon comprising 1.0% fatty acid ester
[4] = Example 11: test tampon comprising 10% fatty acid ester
[5] = FRI1169, read-out: Reduction in TSST-1 Formation, Example 11: test tampon comprising 1.0% fatty acid ester
[6] = Example 8: test tampon comprising 1% by weight of the ester, 24 hours at 37°C
[7] = Example 8: test tampon comprising 1% by weight of the ester, 24 hours at 37°C, ELISA
[8] = FRI1169, read-out: REDUCTION IN TSST-1 FORMATION, Example 8: test tampon comprising 1% by weight of the ester, vs untreated control tampon

| SMILES | Log of Final Concn. of S. aureus [1] | Total Amount TSST-1 Produced [1] | Log of Final Concn. of S. aureus [2] | Total Amount TSST-1 Produced [2] | Log of Final Concn. of S. aureus [3] | Total Amount TSST-1 Produced [3] | Log of Final Concn. of S. aureus [4] | Total Amount TSST-1 Produced [4] | inhibition at 0.1 % [%] | inhibition at 0.5 % [%] | inhibition at 1 % [5] [%] | inhibition at 10 % [%] | FINAL CONCENTRATION OF S. AUREUS CELLS, log to the base 10 [6] | Total Amount TSST-1 Produced [7] | inhibition at 1 % [8] [%] |
| --- | --- | --- | --- | --- | --- | --- | --- | --- | --- | --- | --- | --- | --- | --- | --- |
| CCCCCCCCCCCC(=O)OCC(C)O (stereo not drawn) [Tampon 1, 2-Hydroxy-1-propyl laurate] | 9.1 /ml | 7.93 »g | 7.64 /ml | 1.25 »g | 8.79 /ml | 0.09 »g | 8.37 /ml | 0.05 »g | ~7 | 85 | ~99 | 99 |  |  |  |
| CCCCCCCCCCCC(=O)OCCOCCO [Tampon 2, Diethylene glycol monolaurate] | 8.45 /ml | 0.12 »g | 7.40 /ml | 0.01 »g | 6.13 /ml | 0.01 »g | 7.42 /ml | 0.11 »g | 99 | 99 | ~99 | 99 |  |  |  |
| CCCCCCCCCCCC(=O)OCC(O)CO (stereo not drawn) [Tampon No. 2, Glyceryl monolaurate] |  |  |  |  |  |  |  |  |  |  |  |  | 6.81 /ml | 0.14 »g | 99.1 |
| CCCCCCCCCCCCCC(=O)OCC(O)CO (stereo not drawn) [Tampon No. 3, Glyceryl monomyristate] |  |  |  |  |  |  |  |  |  |  |  |  | 8.70 /ml | 0.58 »g | 96.6 |
| CCCCCCCCCCCCCCCC(=O)OCC(O)CO (stereo not drawn) [Tampon No. 4, Glyceryl monopalmitate] |  |  |  |  |  |  |  |  |  |  |  |  | 9.15 /ml | 1.75 »g | 89.7 |
| CCCCCCCCCCCCCCCCCC(=O)OCC(O)CO (stereo not drawn) [Tampon No. 5, Glyceryl monostearate] |  |  |  |  |  |  |  |  |  |  |  |  | 8.78 /ml | 6.43 »g | 60 |
| CCCCCCCC/C=C\CCCCCCCC(=O)OCC(O)CO (stereo not drawn) [Tampon No. 6, Glyceryl monooleate] |  |  |  |  |  |  |  |  |  |  |  |  | 8.83 /ml | 1.01 »g | 94.1 |
